Data reported in patent publication US11945790B2 (ImmunoMolecular Therapeutics, Inc., priority 2020, dated 2024).

Molecular target: HLA-DQ2 (Homo sapiens, UniProt P01909+P01920)
Assay: Inhibition of IL-2 secretion by TCR transductants stimulated by α-gliadin peptides presented by HLA-DQ2 expressing K562 cells (ELISA)
Assay type: cell-based
Details: inhibition of IL-2 secretion at 200 uM; tested as trans racemate unless otherwise noted; lines naming several Examples = stereoisomer mixture of those Examples
Procedure: Three commercially available analogues of the DQ2 binding molecules of the invention were tested for their ability to inhibit stimulation of T cell receptor (TCR) transductants in the presence of HLA-DQ2 expressing cells presenting known α-gliadin epitopes.
Using a previously published in vitro assay (Ostrov D, et al. Methyldopa blocks MHC class II binding to disease specific antigens in autoimmune diabetes. J Clin Invest. 2018:128 (5)) the ability of these DQ2 binding analogues to inhibit interleukin-2 (IL-2) secretion by TCR transductants stimulated by α-gliadin peptides presented by HLA-DQ2 was determined. Individual TCR transductants (recognizing a I-gliadin or a II-gliadin) were cultured with a gliadin peptide plus the small molecule analogues in the presence of HLA-DQ2 expressing K562 cells serving as antigen presenting cells. TCR transductants cultured with no gliadin peptide served as the negative control, and incubation with an anti-CD3 antibody (eBioscience; clone 2C11) served as a positive control for the TCR transductant. Secreted IL-2 in the culture supernatant was measured using a highly sensitive enzyme-linked immunosorbent assay (ELISA). […] Assays for effects on cell viability and for specificity, assayed in the absence of gliadin peptide or in the presence of a stimulating anti-CD3 antibody, were performed. Unless otherwise noted, the stereochemistry shown below represents the relative configuration. Further, unless otherwise noted, compounds were tested as the trans racemate.

Chain of HLA-DQ2 (P01920 33-261 limits assumed, other chains not shown): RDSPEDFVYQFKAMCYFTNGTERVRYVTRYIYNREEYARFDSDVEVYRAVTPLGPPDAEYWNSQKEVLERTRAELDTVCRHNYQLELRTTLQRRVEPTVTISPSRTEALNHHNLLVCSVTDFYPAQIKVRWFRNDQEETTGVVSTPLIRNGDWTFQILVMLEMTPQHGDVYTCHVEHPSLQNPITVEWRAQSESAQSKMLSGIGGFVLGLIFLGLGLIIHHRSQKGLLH

Row | SMILES | % Inh at 200 uM
1 | COCC(=O)N1CCN(C(=O)[C@@H]2C[C@H]2c2ccccc2)CC1 (relative stereo) [Example 42, [2-Methoxy-1-(4-(trans-2-phenylcyclopropane-1-carbonyl)piperazin-1-yl)ethan-1-one]] | C (C=25-49%)
2 | CSCC(=O)N1CCN(C(=O)[C@@H]2C[C@H]2c2ccccc2)CC1 (relative stereo) [Example 43, [2-(Methylthio)-1-(4-(trans-2-phenylcyclopropane-1-carbonyl)piperazin-1-yl)ethan-1-one]] | C (C=25-49%)
3 | CC(C)SCC(=O)N1CCN(C(=O)[C@@H]2C[C@H]2c2ccccc2)CC1 [Example 45] | C (C=25-49%)
4 | CC(C)OCC(=O)N1CCN(C(=O)[C@@H]2C[C@H]2c2ccccc2)CC1 (relative stereo) [Example 44, 2-Isopropoxy-1-(4-(trans-2-phenylcyclopropanecarbonyl)piperazin-1-yl) ethanone] | C (C=25-49%)
5 | O=C(c1cc(Cl)ccc1Cl)N1CCN(C(=O)C2CC2c2ccc3c(c2)OCO3)CC1 (stereo not drawn) [Example 18] | A (A=≥75%)
6 | O=C(Cc1c(F)cccc1Cl)N1CCN(C(=O)C2CC2c2ccc3c(c2)OCO3)CC1 (stereo not drawn) [Example 23] | C (C=25-49%)

Second part, the compound after the results:

Row | % Inh at 200 uM | SMILES
7 | A (A=≥75%) | O=C(CSC1CCCCCC1)N1CCN(C(=O)[C@@H]2C[C@H]2c2ccccc2)CC1 (relative stereo) [Example 69, 2-(Cycloheptylthio)-1-(4-(trans-2-phenylcyclopropane-1-carbonyl)piperazin-1-yl) ethan-1-one]
8 | A (A=≥75%) | O=C(COC1CCCCCC1)N1CCN(C(=O)[C@@H]2C[C@H]2c2ccccc2)CC1 (relative stereo) [Example 52, 2-(Cycloheptyloxy)-1-(4-(trans-2-phenylcyclopropane-carbonyl)piperazin-1-yl)ethanone]
9 | C (C=25-49%) | CC1(c2ccccc2O)CC1C(=O)N1CCN(C(=O)CSC2CCCC2)CC1 (stereo not drawn) [Example 67]
10 | A (A=≥75%) | O=C(CN(C(=O)OCc1ccccc1)C1CCCC1)N1CCN(C(=O)[C@@H]2CC2c2ccccc2)CC1 (stereo partly drawn) [Example 83]
11 | C (C=25-49%) | NC(=O)c1ccc(OCC(=O)N2CCN(C(=O)[C@@H]3C[C@H]3c3ccccc3)CC2)cc1 [Example 89]
12 | C (C=25-49%) | NC(=O)c1ccccc1SCC(=O)N1CCN(C(=O)[C@@H]2C[C@H]2c2ccccc2)CC1 [Example 73]
